Like-named read-outs stand apart in the source and are kept apart here.
Experiments:
[1] = type: in vivo, human; conditions: for Dose-corrected serum concentration, 25th percentile / Dose-corrected serum concentration, 75th percentile / Dose-corrected serum concentration, mean / Dose-corrected serum concentration, median / Dose-corrected serum concentration, minimum to maximum / Uncorrected serum concentration, 25th percentile / Uncorrected serum concentration, 75th percentile / Uncorrected serum concentration, mean / Uncorrected serum concentration, minimum to maximum / Uncorrected serum concentration, median / Ratio metabolite/oxycodone serum concentration, 25th percentile / Ratio metabolite/oxycodone serum concentration, 75th percentile / Ratio metabolite/oxycodone serum concentration, mean / Ratio metabolite/oxycodone serum concentration, median / Ratio metabolite/oxycodone serum concentration, minimum to maximum: hospitalised patients; for Uncorrected serum concentration, median: oral oxycodone, trough sample; for Serum concentration, range / Serum concentration, median: partly different from Table 3; for Ratio metabolite/oxycodone serum concentration, 25th percentile / Ratio metabolite/oxycodone serum concentration, 75th percentile / Ratio metabolite/oxycodone serum concentration, mean / Ratio metabolite/oxycodone serum concentration, median / Ratio metabolite/oxycodone serum concentration, minimum to maximum: uncorrected serum concentrations
[2] = for Unstandardised coefficient B, ratio noroxycodone/oxycodone / Unstandardised coefficient B, oxycodone serum concentration / Unstandardised coefficient B, ratio oxymorphone/oxycodone: log 10 form
[3] = tested on: CYP2D6; conditions: healthy volunteers; cited from earlier work
[4] = tested on: CYP3A4; conditions: cited from earlier work
[5] = Mann-Whitney U test; 35 users
[6] = cited from earlier work
[7] = cited from earlier work; remark: listed apart in the source
[8] = cited from earlier work; remark: listed apart in the source
[9] = factor: CYP3A4 inducer (yes = 1)
[10] = factor: CYP3A4 inhibitor (yes = 1)
[11] = factor: sex (men = 1, women = 0)
[12] = factor: time from last oxycodone dose to blood sample

COc1ccc2c3c1O[C@H]1C(=O)CC[C@@]4(O)[C@@H](C2)NCC[C@]314 [Noroxycodone, noroxycodone]
95% CI for the mean ratio metabolite/oxycodone [1]: 1.4 to 1.8 nM | 95% CI for the uncorrected mean serum concentration [1]: 174 to 245 nM | Dose-corrected serum concentration, 25th percentile [1]: 103 nM × 100 mg 24 h^−1/dose 24 h^−1 | Dose-corrected serum concentration, 75th percentile [1]: 261 nM × 100 mg 24 h^−1/dose 24 h^−1 | Dose-corrected serum concentration, mean [1]: 212 nM × 100 mg 24 h^−1/dose 24 h^−1 | Dose-corrected serum concentration, median [1]: 161 nM × 100 mg 24 h^−1/dose 24 h^−1 | Dose-corrected serum concentration, minimum to maximum [1]: 0–3,032 nM × 100 mg 24 h^−1/dose 24 h^−1 | Uncorrected serum concentration, 25th percentile [1]: 44 nM | Uncorrected serum concentration, 75th percentile [1]: 211 nM | Uncorrected serum concentration, mean [1]: 209 nM | Uncorrected serum concentration, minimum to maximum [1]: 0–3,571 nM | Uncorrected serum concentration, median [1]: 101 nM | Serum concentration, range [1]: 0 to 4,858 nM | Ratio metabolite/oxycodone serum concentration, 25th percentile [1]: 0.7 | Ratio metabolite/oxycodone serum concentration, 75th percentile [1]: 1.9 | Ratio metabolite/oxycodone serum concentration, mean [1]: 1.6 | Ratio metabolite/oxycodone serum concentration, median [1]: 1.1 | Ratio metabolite/oxycodone serum concentration, minimum to maximum [1]: 0.1–24.4 | Unstandardised coefficient B, ratio noroxycodone/oxycodone ([2]; factor: BMI): −0.009 | Unstandardised coefficient B, ratio noroxycodone/oxycodone [2, 9]: 0.602 | Unstandardised coefficient B, ratio noroxycodone/oxycodone [2, 10]: −0.294 | Unstandardised coefficient B, ratio noroxycodone/oxycodone ([2]; factor: albumin): 0.006 | Unstandardised coefficient B, ratio noroxycodone/oxycodone ([2]; factor: glomerular filtration rate): −0.001 | Unstandardised coefficient B, ratio noroxycodone/oxycodone ([2]; factor: oxycodone total daily dose, n = 396, R^2 = 0.19): 0.001 | Unstandardised coefficient B, ratio noroxycodone/oxycodone [2, 11]: −0.110 | Unstandardised coefficient B, ratio noroxycodone/oxycodone ([2]; factor: systemic steroids (yes = 1)): −0.070 | Unstandardised coefficient B, ratio noroxycodone/oxycodone [2, 12]: 0.012 | Predicted higher noroxycodone/oxycodone ratio in users of CYP3A4 inducers ([2]; human, in vivo): about 4 times | Predicted lower noroxycodone/oxycodone ratio in users of systemic steroids ([2]; human, in vivo): 15% | AUC after blocking the CYP2D6 metabolic pathways of oxycodone with quinidine [3]: increased | Cmax after blocking the CYP3A4 metabolic pathway with ketoconazole [4]: decreased

O=C1CC[C@@]2(O)[C@H]3Cc4ccc(O)c5c4[C@@]2(CCN3)[C@H]1O5 [Noroxymorphone, noroxymorphone]
Dose-corrected serum concentration, 25th percentile [1]: 18 nM × 100 mg 24 h^−1/dose 24 h^−1 | Dose-corrected serum concentration, 75th percentile [1]: 44 nM × 100 mg 24 h^−1/dose 24 h^−1 | Dose-corrected serum concentration, mean [1]: 34 nM × 100 mg 24 h^−1/dose 24 h^−1 | Dose-corrected serum concentration, median [1]: 29 nM × 100 mg 24 h^−1/dose 24 h^−1 | Dose-corrected serum concentration, minimum to maximum [1]: 0–360 nM × 100 mg 24 h^−1/dose 24 h^−1 | Uncorrected serum concentration, 25th percentile [1]: 8 nM | Uncorrected serum concentration, 75th percentile [1]: 39 nM | Uncorrected serum concentration, mean [1]: 30 nM | Uncorrected serum concentration, minimum to maximum [1]: 0 to 509 nM | Uncorrected serum concentration, median [1]: 17 nM | Serum concentration, median [1]: 17 nM | Serum concentration, range [1]: 0 to 509 nM

COc1ccc2c3c1O[C@H]1C(=O)CC[C@@]4(O)[C@@H](C2)N(C)CC[C@]314 [Oxycodone, oxycodone, reference compound]
95% CI for the uncorrected mean serum concentration [1]: 139 to 183 nM | Dose-corrected serum concentration, 25th percentile [1]: 90 nM × 100 mg 24 h^−1/dose 24 h^−1 | Dose-corrected serum concentration, 75th percentile [1]: 225 nM × 100 mg 24 h^−1/dose 24 h^−1 | Dose-corrected serum concentration, mean [1]: 186 nM × 100 mg 24 h^−1/dose 24 h^−1 | Dose-corrected serum concentration, median [1]: 144 nM × 100 mg 24 h^−1/dose 24 h^−1 | Dose-corrected serum concentration, minimum to maximum [1]: 0–1,294 nM × 100 mg 24 h^−1/dose 24 h^−1 | Uncorrected serum concentration, 25th percentile [1]: 43 nM | Uncorrected serum concentration, 75th percentile [1]: 201 nM | Uncorrected serum concentration, mean [1]: 161 nM | Uncorrected serum concentration, minimum to maximum [1]: 0–1,890 nM | Uncorrected serum concentration, median [1]: 97 nM | Serum concentration, range [1]: 0 to 1,890 nM | Predicted higher oxycodone serum concentration in men than in women ([2]; calculated from the regression analysis): about 30% | Unstandardised coefficient B, oxycodone serum concentration [2, 9]: −0.786 | Unstandardised coefficient B, oxycodone serum concentration [2, 10]: 0.204 | Unstandardised coefficient B, oxycodone serum concentration ([2]; factor: oxycodone total daily dose, n = 433, R^2 = 0.35): 0.002 | Unstandardised coefficient B, oxycodone serum concentration [2, 11]: 0.113 | Unstandardised coefficient B, oxycodone serum concentration [2, 12]: −0.027 | Predicted higher oxycodone serum concentration in users of CYP3A4 inhibitors ([2]; versus non-users): 60% | Predicted lower oxycodone serum concentration in users of CYP3A4 inducer drugs ([2]; versus those without CYP3A4 inducer drug): 84% | Serum concentration, users versus non-users of CYP2D6 inhibitors [5]: did not differ | Oral bioavailability [6]: 60–87% | AUC after blocking the CYP2D6 metabolic pathways of oxycodone with quinidine [3]: increased | Plasma concentrations in elderly versus younger patients [7]: may have higher

CN1CC[C@]23c4c5ccc(O)c4O[C@H]2C(=O)CC[C@@]3(O)[C@H]1C5 [Oxymorphone, oxymorphone]
95% CI for the mean ratio metabolite/oxycodone [1]: 0.020 to 0.025 nM | 95% CI for the uncorrected mean serum concentration [1]: 2.3 to 3.0 nM | Dose-corrected serum concentration, 25th percentile [1]: 1.2 nM × 100 mg 24 h^−1/dose 24 h^−1 | Dose-corrected serum concentration, 75th percentile [1]: 4.2 nM × 100 mg 24 h^−1/dose 24 h^−1 | Dose-corrected serum concentration, mean [1]: 3.4 nM × 100 mg 24 h^−1/dose 24 h^−1 | Dose-corrected serum concentration, median [1]: 2.2 nM × 100 mg 24 h^−1/dose 24 h^−1 | Dose-corrected serum concentration, minimum to maximum [1]: 0–34 nM × 100 mg 24 h^−1/dose 24 h^−1 | Uncorrected serum concentration, 25th percentile [1]: 0.7 nM | Uncorrected serum concentration, 75th percentile [1]: 3.2 nM | Uncorrected serum concentration, mean [1]: 2.6 nM | Uncorrected serum concentration, minimum to maximum [1]: 0 to 25 nM | Uncorrected serum concentration, median [1]: 1.5 nM | Serum concentration, median [1]: 1.5 nM | Serum concentration, range [1]: 0 to 27 nM | Ratio metabolite/oxycodone serum concentration, 25th percentile [1]: 0.01 | Ratio metabolite/oxycodone serum concentration, 75th percentile [1]: 0.03 | Ratio metabolite/oxycodone serum concentration, mean [1]: 0.02 | Ratio metabolite/oxycodone serum concentration, median [1]: 0.02 | Ratio metabolite/oxycodone serum concentration, minimum to maximum [1]: 0.00032–0.21 | Unstandardised coefficient B, ratio oxymorphone/oxycodone [2, 9]: 0.607 | Unstandardised coefficient B, ratio oxymorphone/oxycodone ([2]; factor: number of medications (excluding opioids) taken in the last 24 h): −0.024 | Unstandardised coefficient B, ratio oxymorphone/oxycodone ([2]; factor: oxycodone total daily dose, n = 438, R^2 = 0.05): −0.0004 | Serum concentration, users versus non-users of CYP2D6 inhibitors [5]: did not differ | AUC after blocking the CYP2D6 metabolic pathways of oxycodone with quinidine [3]: decreased | AUC after blocking the CYP3A4 metabolic pathway with ketoconazole [4]: increased | Concentrations in patients with impaired hepatic function [7]: lower

CN1CC[C@]23c4c5ccc(O)c4O[C@H]2[C@@H](O)C=C[C@H]3[C@H]1C5 [morphine]
Additional morphine needed by men compared with women for pain relief [8]: 30–40%

— PMC3076582 (European Journal of Clinical Pharmacology, 2010)
